From patent US20160317474A1, “Managing Visual Dysfunction or Loss of Vision for Diabetic Subjects” (priority 2013, published 2016) come the findings set out here.

“Also recorded” adds a separate entry of the source.

For data set [1], the system named is STZ-induced DM WT mice. Kind of data set: Optokinetic tracking (OKT) visual function with chronic L-DOPA treatment in STZ-induced diabetic (DM) and CTRL WT mice. Conditions: for reduction in spatial frequency threshold: DM WT+L-DOPA group vs CTRL. It counts as in vivo. The source says: (§1) To examine whether DA deficiency causes visual deficits in early DR, the effects of restoring DA levels with L-DOPA on visual function of DM mice was investigated. […] Moreover, the severity of visual deficits progressed over time. The deficit in spatial frequency threshold of DM WT+Veh group (compared with CTRL WT+Veh group) worsened from 7.0% at 3 weeks after STZ to 12.3% at 6 weeks after STZ, whereas the reduction in contrast sensitivity deteriorated from 12.8% at 3 weeks after STZ to 43.6% at 6 weeks after STZ. […] The reduction in spatial frequency threshold of DM WT+L-DOPA group progressed from 2.4% at 3 weeks after STZ to 7.2% at 6 weeks after STZ, whereas the deficit in contrast sensitivity was only significant at 6 weeks after STZ, with an 18.0% reduction from CTRL animals. […] Furthermore, behavioral side effects such as dyskinesia with our current dosage of L-DOPA (10 mg/kg daily) in either CTRL or DM mice was not observed. A dosage was selected that was lower than the typical dosage used to induce dyskinesia (25 mg/kg) yet could still increase retinal DA levels.

Data set [2] has as its system DM rTHKO mice. Kind of data set: OKT visual function with L-DOPA treatment in diabetic mice with loss of retinal DA (DM rTHKO). The data set is classed as in vivo. The method, then:
Because systemic injections of L-DOPA affect both brain and retinal dopaminergic systems, the role of retinal DA deficiency underlying visual deficits in early-stage DR was tested by assessing the effects of diabetes in mice with loss of retinal DA (rTHKO mice). It is hypothesized that reduced retinal DA content is a major contributing factor to the early visual deficits, so diabetes in rTHKO mice should not result in a further decline in their visual function.

In data set [3] the test system is retinal DA levels. Kind of data set: Retinal dopamine content after daily intraperitoneal L-DOPA. The data set is classed as in vivo, mice. The note with it: daily intraperitoneal injections. The method, then:
To validate that daily intraperitoneal injections of L-DOPA were able to increase retinal DA levels, retinal dopamine contents of the following four groups of animals were measured: CTRL WT+Veh, CTRL WT+L-DOPA, DM rTHKO+Veh, and DM rTHKO+L-DOPA. The retinal TH deficiency in the rTHKO mice greatly diminished DA levels compared with both CTRL groups (one-way ANOVA with ranks, H=12.092 with 3 degrees of freedom, p=0.007; Table 3).

The test system of data set [4] is retinal function of DM mice. An excerpt: Next, the postreceptoral function (i.e., b-wave) of these animals was examined.
Data set [5] concerns Th, Drd1, Drd4 transcript levels. Kind of data set: Real-time RT-PCR of retinal dopaminergic system-related genes. The data set is classed as in vivo, mice. An excerpt: Note that the y-axis refers to averaged 2−ΔCt values, with ΔCt calculated by subtracting cycle threshold (Ct) of 18S from Ct of gene of interest (GOI). The asterisk indicates significant difference between the respective treatment group and the CTRL WT group.
The specificity of our Th primers was confirmed, because a >4-fold reduction in Th expression in rTHKO mice (Student's t values: DM rTHKO+Veh=5.964 and DM rTHKO+L-DOPA=5.928, p<0.01; FIG. 7, Table 4) regardless of L-DOPA treatment was found.
Whether diabetes affected transcript levels of DA receptors, specifically D1 receptor (Drd1) and D4 receptor (Drd4), which are selectively involved in spatial frequency threshold and contrast sensitivity was investigated. No significant changes were found in the transcript levels of Drd1 and Drd4 (FIG. 7, Table 4).
(Quantitative PCR measures a nucleic acid by following its amplification.)

Data set [6] is described as follows: Behavioral side effects (dyskinesia) under L-DOPA. It counts as in vivo. The note with it: L-DOPA 10 mg/kg daily, CTRL or DM mice.
Text: as §1

Data set [7] relates to retinal function of DM mice. Kind of data set: Light-adapted flicker ERG (cone pathway function). Conditions: 5-week time point.
Experimental: Because OKT responses were recorded under photopic conditions, isolated cone pathway function was examined by exposing light-adapted animals to flicker stimuli.
Data set [8] deals with 8-week DM WT mice. Kind of data set: OKT responses of 8-week DM WT mice after selective dopamine receptor agonists. The data set is classed as in vivo. The note with it: DM WT mice after 8 weeks of diabetes, agonist injection vs vehicle. The method, then:
After 8 weeks of diabetes, the animals were injected with vehicle, D1 receptor (D1R) agonist (SKF38393), and D4 receptor (D4R) agonist (PD168077).

Turning to `N[C@@H](Cc1ccc(O)c(O)c1)C(=O)O` [L-DOPA, (−)-L-α-amino-β-(3,4-dihydroxybenzene)propanoic acid], the contrast sensitivity change entry in data set [1] (DM WT and L-DOPA mice, 6 weeks after STZ) was “slight decrease”. Moreover, the “onset of visual deficits (spatial frequency threshold)” value in data set [1] (DM WT and L-DOPA mice, slower and less severe progression) turned out to be 4 weeks after STZ. The “onset and progression of visual dysfunction” value in data set [1] (DM WT mice, chronic L-DOPA treatment) is given as “significantly delayed”. Moreover, the “reduction in spatial frequency threshold” value in data set [1] (3 weeks after STZ, L-DOPA 10 mg/kg daily) worked out at 2.4%; in data set [1] (6 weeks after STZ, L-DOPA 10 mg/kg daily), 7.2%. Further, the “deficit in contrast sensitivity (reduction from CTRL animals)” value in data set [1] (DM WT+L-DOPA group, 6 weeks after STZ, L-DOPA 10 mg/kg daily) is 18.0%. Moreover, the “spatial frequency threshold or contrast sensitivity in CTRL mice” value in data set [1] (non-diabetic CTRL mice treated with L-DOPA) is given as “did not cause significant changes”. Moreover, the “contrast sensitivities vs DM rTHKO+Veh” value in data set [2] is reported as “significantly better”. The “visual functions of DM rTHKO mice” value in data set [2] (for the duration of the study) is “significantly improved”. Moreover, the “spatial frequency thresholds vs DM rTHKO+Veh” value in data set [2] (throughout the study duration, p<0.001) is “significantly higher”. Also, the “DA levels of CTRL mice” value in data set [3] (CTRL WT+L-DOPA) was “did not significantly increase”. For the same molecule, the “retina DA contents of rTHKO mice” value in data set [3] (DM rTHKO+L-DOPA) is given as “levels comparable to those of CTRL animals”. For the same molecule, the b-wave amplitude entry in data set [4] (DM rTHKO mice (±L-DOPA) vs CTRL WT, dim and bright flash stimuli) is recorded as “significantly reduced responses”. The b-wave implicit times entry in data set [4] (DM rTHKO+L-DOPA, dim and bright stimuli) is “strong, although not statistically significant, trend for improvement”. In data set [5] (DM WT+L-DOPA vs CTRL WT, p<0.05), the Drd4 transcript levels entry is recorded as “significant downregulation; also recorded: downregulation of Drd4”. Besides, in data set [5] (L-DOPA treatment, retina, RT-PCR), the Th transcript levels result was “trend for Th downregulation”. Moreover, the “behavioral side effects such as dyskinesia” value in data set [6] is “not observed”. Further, the “flicker ERG responses (amplitude and implicit time)” value in data set [7] (DM WT+L-DOPA, light-adapted, 6 Hz flicker) was “levels similar to those of CTRL animals; also recorded: restore ERG responses of DM WT mice to those of CTRL mice”. The “cone pathway functions (flicker responses)” value in data set [7] (DM rTHKO+L-DOPA vs CTRL levels) is “partially restore”.
`Cc1cccc(C(=O)NCN2CCN(c3ccccc3C#N)CC2)c1` [PD168077]: in data set [8], the contrast sensitivity entry is reported as “only improved contrast sensitivity” and the spatial frequency threshold result is listed as “failed to improve”. The contrast sensitivity result in data set [8] (listed as D4 agonist) was “significantly enhanced”.
In the case of `Oc1cc2c(cc1O)C(c1ccccc1)CNCC2` (stereo not drawn) [SKF38393, 1-Phenyl-2,3,4,5-tetrahydro-(1H)-3-benzazepine-7,8-diol], the values for the spatial frequency threshold result in data set [8] and in data set [8] (listed as D1 receptor agonist) were “only improved spatial frequency threshold” and “improved significantly”, respectively.
